{"source": "patent US20250101023A1", "about": "“HETEROARYL DERIVATIVE AND USES THEREOF” (IUCF-HYU (INDUSTRY-UNIVERSITY COOPERATION FOUNDATION …, priority 2022, published 2025)", "key": {"TLK1": {"biological_target": "TLK1 (Homo sapiens (Human), UniProt Q9UKI8)", "assay": "Kinome-wide profiling", "type": "biochemical", "details": "read-out: % Residual Activity (mean)"}, "MLCK/MYLK": {"biological_target": "MLCK/MYLK (Homo sapiens (Human), UniProt Q15746)", "assay": "Kinome-wide profiling", "type": "biochemical", "details": "read-out: % Residual Activity (mean)"}, "PIM1": {"biological_target": "PIM1 (Homo sapiens (Human), UniProt P11309)", "assay": "Kinome-wide profiling", "type": "biochemical", "details": "read-out: % Residual Activity (mean)"}, "[1]": {"assay": "Liver microsomal metabolic stability", "type": "in vitro ADME", "description": "5 derivatives were evaluated for in vitro metabolic stability in liver microsomes from three different species (human, dog, mouse) and for inhibitory activity against 5 representative cytochrome P450 enzymes (CYPs)(Table 3). In terms of liver microsomal stability, the 2′-pyridyl group is more suitable than the α-methyl-4′-pyridyl group as the terminal aromatic group at position 6, and the aminopyrimidyl group is better than the aminopyridyl group as a substituent at position 2."}, "PKG2/PRKG2": {"biological_target": "PKG2/PRKG2 (Homo sapiens (Human), UniProt Q13237)", "assay": "Kinome-wide profiling", "type": "biochemical", "details": "read-out: % Residual Activity (mean)"}, "LATS2": {"biological_target": "LATS2 (Homo sapiens (Human), UniProt Q9NRM7)", "sequence (Q9NRM7 whole entry)": "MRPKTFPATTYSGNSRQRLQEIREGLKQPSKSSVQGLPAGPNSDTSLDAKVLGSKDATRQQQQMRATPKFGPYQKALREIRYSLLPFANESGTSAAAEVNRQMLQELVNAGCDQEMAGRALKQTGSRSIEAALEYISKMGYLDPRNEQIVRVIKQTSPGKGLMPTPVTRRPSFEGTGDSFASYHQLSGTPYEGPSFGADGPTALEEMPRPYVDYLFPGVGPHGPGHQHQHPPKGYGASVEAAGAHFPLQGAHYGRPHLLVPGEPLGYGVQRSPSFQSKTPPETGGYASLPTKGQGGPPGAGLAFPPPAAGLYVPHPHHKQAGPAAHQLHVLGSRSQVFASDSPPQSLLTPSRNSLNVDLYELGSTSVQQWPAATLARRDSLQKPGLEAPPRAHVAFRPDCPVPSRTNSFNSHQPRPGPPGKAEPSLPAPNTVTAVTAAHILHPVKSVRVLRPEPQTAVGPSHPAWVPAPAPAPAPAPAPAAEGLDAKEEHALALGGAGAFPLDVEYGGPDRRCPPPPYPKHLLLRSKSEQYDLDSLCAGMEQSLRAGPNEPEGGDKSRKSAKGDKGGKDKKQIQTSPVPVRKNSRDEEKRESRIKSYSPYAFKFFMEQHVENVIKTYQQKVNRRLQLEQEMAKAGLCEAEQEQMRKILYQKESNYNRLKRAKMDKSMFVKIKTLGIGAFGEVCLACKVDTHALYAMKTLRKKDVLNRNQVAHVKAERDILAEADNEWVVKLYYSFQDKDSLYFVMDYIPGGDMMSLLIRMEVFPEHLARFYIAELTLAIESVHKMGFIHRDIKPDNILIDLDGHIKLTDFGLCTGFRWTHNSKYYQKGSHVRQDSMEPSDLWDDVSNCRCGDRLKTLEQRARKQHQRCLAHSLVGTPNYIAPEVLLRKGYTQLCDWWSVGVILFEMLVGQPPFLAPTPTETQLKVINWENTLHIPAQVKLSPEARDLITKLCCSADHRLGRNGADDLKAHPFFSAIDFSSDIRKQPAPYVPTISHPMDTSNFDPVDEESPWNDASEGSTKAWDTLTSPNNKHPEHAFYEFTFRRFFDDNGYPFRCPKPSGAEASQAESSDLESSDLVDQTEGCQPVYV", "assay": "Kinome-wide profiling", "type": "biochemical", "details": "read-out: % Residual Activity (mean)"}, "CDK9/cyclin T2": {"biological_target": "CDK9/cyclin T2 (Homo sapiens (Human), UniProt P50750)", "assay": "Kinome-wide profiling", "type": "biochemical", "details": "read-out: % Residual Activity (mean)"}, "MUSK": {"biological_target": "MUSK (Homo sapiens (Human), UniProt O15146)", "sequence (O15146 24-869)": "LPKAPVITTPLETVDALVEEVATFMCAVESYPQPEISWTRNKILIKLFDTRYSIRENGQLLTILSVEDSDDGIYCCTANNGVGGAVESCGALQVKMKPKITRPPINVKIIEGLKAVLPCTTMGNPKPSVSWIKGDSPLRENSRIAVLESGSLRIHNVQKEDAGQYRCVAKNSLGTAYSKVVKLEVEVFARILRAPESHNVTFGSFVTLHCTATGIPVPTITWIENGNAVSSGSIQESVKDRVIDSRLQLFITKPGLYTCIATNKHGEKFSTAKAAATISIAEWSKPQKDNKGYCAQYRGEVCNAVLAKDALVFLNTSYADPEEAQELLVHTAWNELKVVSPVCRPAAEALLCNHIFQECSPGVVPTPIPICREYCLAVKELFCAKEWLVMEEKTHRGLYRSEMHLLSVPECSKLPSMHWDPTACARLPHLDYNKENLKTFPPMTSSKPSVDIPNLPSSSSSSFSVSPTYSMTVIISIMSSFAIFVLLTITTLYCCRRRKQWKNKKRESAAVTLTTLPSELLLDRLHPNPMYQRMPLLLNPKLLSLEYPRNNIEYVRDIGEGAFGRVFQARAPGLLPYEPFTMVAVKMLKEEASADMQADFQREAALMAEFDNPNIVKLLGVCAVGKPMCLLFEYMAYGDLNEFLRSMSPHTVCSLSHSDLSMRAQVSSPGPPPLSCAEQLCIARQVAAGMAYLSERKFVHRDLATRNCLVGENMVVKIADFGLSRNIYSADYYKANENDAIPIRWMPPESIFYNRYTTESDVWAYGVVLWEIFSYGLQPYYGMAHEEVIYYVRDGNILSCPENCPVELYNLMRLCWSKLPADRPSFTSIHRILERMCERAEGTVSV", "assay": "Kinome-wide profiling", "type": "biochemical", "details": "read-out: % Residual Activity (mean)"}, "CK1a1": {"biological_target": "CK1a1 (Homo sapiens (Human), UniProt P48729)", "assay": "Kinome-wide profiling", "type": "biochemical", "details": "read-out: % Residual Activity (mean)"}, "CDK1/cyclin B": {"biological_target": "CDK1/cyclin B (Homo sapiens (Human), UniProt P06493)", "assay": "Kinome-wide profiling", "type": "biochemical", "details": "read-out: % Residual Activity (mean)"}, "SK-Br3 cells": {"system": "SK-Br3 cells", "assay": "Breast cancer growth inhibitory activity (Cell-titer Glo, 72 h)", "type": "cell-based", "details": "Homo sapiens, SK-BR-3; read-out: SK-Br3 GI50", "summary_of_the_method": "(§1)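 Cells seeded at 2,500 (SK-Br3) or 1,000 (HCC1954) per well and grown 24 h before treatment. Viability read by Cell-titer Glo luminescence; IC50 from titration curve fitting.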"}, "HCC1954 cells": {"system": "HCC1954 cells", "assay": "Breast cancer growth inhibitory activity (Cell-titer Glo, 72 h)", "type": "cell-based", "details": "Homo sapiens, read-out: HCC1954 GI50", "summary_of_the_method": "as §1"}, "EPHA5": {"biological_target": "EPHA5 (Homo sapiens (Human), UniProt P54756)", "sequence (P54756 25-1037)": "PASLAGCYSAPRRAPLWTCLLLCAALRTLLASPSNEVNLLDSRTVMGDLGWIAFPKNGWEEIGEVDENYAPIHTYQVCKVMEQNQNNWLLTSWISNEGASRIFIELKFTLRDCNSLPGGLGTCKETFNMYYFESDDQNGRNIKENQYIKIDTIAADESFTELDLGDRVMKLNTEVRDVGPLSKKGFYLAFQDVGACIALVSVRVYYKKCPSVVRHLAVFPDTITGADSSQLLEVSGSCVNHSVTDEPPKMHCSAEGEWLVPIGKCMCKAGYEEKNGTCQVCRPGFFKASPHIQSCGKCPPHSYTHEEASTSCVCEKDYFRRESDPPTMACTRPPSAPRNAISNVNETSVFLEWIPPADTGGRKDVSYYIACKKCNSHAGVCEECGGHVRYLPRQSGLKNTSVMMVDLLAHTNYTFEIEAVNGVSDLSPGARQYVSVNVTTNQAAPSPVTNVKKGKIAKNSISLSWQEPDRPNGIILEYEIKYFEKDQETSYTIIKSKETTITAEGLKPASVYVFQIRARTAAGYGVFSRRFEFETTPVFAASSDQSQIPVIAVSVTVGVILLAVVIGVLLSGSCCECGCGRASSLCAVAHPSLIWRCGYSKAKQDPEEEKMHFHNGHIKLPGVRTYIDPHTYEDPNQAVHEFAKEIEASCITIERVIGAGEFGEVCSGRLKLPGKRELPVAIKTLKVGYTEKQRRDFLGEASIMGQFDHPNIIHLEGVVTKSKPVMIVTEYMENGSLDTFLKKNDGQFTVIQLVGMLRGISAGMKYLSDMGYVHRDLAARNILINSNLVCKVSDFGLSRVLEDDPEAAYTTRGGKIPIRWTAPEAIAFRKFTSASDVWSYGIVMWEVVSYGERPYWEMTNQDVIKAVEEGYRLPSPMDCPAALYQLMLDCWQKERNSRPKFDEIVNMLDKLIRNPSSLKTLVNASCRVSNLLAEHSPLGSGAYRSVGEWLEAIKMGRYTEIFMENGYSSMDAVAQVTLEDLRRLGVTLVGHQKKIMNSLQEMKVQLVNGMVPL", "assay": "Kinome-wide profiling", "type": "biochemical", "details": "read-out: % Residual Activity (mean)"}, "BRAF": {"biological_target": "BRAF (Homo sapiens (Human), UniProt P15056)", "assay": "Kinome-wide profiling", "type": "biochemical", "details": "read-out: % Residual Activity (mean)"}, "EPHA2": {"biological_target": "EPHA2 (Homo sapiens (Human), UniProt P29317)", "assay": "Kinome-wide profiling", "type": "biochemical", "details": "read-out: % Residual Activity (mean)"}, "RSK4": {"biological_target": "RSK4 (Homo sapiens (Human), UniProt Q9UK32)", "assay": "Kinome-wide profiling", "type": "biochemical", "details": "read-out: % Residual Activity (mean)"}, "STK25/YSK1": {"biological_target": "STK25/YSK1 (Homo sapiens (Human), UniProt O00506)", "assay": "Kinome-wide profiling", "type": "biochemical", "details": "read-out: % Residual Activity (mean)"}, "DYRK2": {"biological_target": "DYRK2 (Homo sapiens (Human), UniProt Q92630)", "assay": "Kinome-wide profiling", "type": "biochemical", "details": "read-out: % Residual Activity (mean)"}, "JNK3": {"biological_target": "JNK3 (Homo sapiens (Human), UniProt P53779)", "assay": "Kinome-wide profiling", "type": "biochemical", "details": "read-out: % Residual Activity (mean)"}, "STK33": {"biological_target": "STK33 (Homo sapiens (Human), UniProt Q9BYT3)", "assay": "Kinome-wide profiling", "type": "biochemical", "details": "read-out: % Residual Activity (mean)"}, "MAPKAPK5/PRAK": {"biological_target": "MAPKAPK5/PRAK (Homo sapiens (Human), UniProt Q8IW41)", "sequence (Q8IW41 whole entry)": "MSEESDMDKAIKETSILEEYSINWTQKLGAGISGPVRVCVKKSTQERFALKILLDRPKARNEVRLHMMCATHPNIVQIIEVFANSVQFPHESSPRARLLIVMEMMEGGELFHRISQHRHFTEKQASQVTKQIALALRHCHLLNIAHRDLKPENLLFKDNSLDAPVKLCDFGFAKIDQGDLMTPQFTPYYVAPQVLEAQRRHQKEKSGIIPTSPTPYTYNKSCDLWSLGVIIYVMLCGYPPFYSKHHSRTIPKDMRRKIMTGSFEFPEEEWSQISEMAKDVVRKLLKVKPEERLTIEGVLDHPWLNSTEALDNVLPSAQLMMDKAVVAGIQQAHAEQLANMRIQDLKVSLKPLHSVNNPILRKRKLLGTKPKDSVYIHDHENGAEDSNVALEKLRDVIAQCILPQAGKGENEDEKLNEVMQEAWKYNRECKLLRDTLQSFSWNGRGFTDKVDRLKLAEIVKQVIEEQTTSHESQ", "assay": "Kinome-wide profiling", "type": "biochemical", "details": "read-out: % Residual Activity (mean)"}, "GRK5": {"biological_target": "GRK5 (Homo sapiens (Human), UniProt P34947)", "assay": "Kinome-wide profiling", "type": "biochemical", "details": "read-out: % Residual Activity (mean)"}, "MEK2": {"biological_target": "MEK2 (Homo sapiens (Human), UniProt P36507)", "assay": "Kinome-wide profiling", "type": "biochemical", "details": "read-out: % Residual Activity (mean)"}, "LKB1": {"biological_target": "LKB1 (Homo sapiens (Human), UniProt Q15831)", "sequence (Q15831 whole entry)": "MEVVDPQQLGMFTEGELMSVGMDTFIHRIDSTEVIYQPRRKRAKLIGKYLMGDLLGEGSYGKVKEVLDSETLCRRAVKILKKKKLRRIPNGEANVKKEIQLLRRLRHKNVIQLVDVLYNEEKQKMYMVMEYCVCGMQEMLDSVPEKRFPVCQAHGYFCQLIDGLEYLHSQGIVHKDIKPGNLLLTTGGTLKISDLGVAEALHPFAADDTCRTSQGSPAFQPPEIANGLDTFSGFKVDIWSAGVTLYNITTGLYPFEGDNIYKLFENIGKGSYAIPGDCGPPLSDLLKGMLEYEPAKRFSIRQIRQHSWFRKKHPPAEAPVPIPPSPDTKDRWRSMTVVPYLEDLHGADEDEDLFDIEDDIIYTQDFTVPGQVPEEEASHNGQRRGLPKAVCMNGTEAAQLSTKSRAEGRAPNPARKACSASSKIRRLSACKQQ", "sequence (Q7RTN6 whole entry partner)": "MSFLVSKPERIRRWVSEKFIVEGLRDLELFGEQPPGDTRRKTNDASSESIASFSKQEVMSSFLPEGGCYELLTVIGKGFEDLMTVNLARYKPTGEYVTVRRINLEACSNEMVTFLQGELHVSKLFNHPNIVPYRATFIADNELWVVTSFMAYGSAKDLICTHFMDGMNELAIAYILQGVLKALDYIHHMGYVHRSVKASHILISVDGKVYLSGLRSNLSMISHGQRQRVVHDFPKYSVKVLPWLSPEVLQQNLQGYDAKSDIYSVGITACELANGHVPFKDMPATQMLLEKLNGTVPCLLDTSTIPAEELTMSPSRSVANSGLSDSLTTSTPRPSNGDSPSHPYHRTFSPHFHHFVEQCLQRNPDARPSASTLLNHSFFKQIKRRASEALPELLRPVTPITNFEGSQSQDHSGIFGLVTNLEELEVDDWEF", "sequence (Q9Y376 whole entry partner)": "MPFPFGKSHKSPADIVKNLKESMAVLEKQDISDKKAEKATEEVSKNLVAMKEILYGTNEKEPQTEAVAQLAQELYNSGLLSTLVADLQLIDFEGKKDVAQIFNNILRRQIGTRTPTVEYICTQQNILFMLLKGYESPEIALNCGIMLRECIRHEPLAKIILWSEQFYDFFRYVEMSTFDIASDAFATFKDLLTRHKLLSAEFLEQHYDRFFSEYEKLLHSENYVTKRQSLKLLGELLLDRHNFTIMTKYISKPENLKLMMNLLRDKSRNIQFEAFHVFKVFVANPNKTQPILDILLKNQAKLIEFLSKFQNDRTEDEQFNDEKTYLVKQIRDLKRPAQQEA", "assay": "Kinome-wide profiling", "type": "biochemical", "details": "read-out: % Residual Activity (mean)"}, "FER": {"biological_target": "FER (Homo sapiens (Human), UniProt P16591)", "assay": "Kinome-wide profiling", "type": "biochemical", "details": "read-out: % Residual Activity (mean)"}, "TNIK": {"biological_target": "TNIK (Homo sapiens (Human), UniProt Q9UKE5)", "assay": "Kinome-wide profiling", "type": "biochemical", "details": "read-out: % Residual Activity (mean)"}, "CAMK1d": {"biological_target": "CAMK1d (Homo sapiens (Human), UniProt Q8IU85)", "assay": "Kinome-wide profiling", "type": "biochemical", "details": "read-out: % Residual Activity (mean)"}, "MST1/STK4": {"biological_target": "MST1/STK4 (Homo sapiens (Human), UniProt Q13043)", "assay": "Kinome-wide profiling", "type": "biochemical", "details": "read-out: % Residual Activity (mean)"}, "EPHA1": {"biological_target": "EPHA1 (Homo sapiens (Human), UniProt P21709)", "assay": "Kinome-wide profiling", "type": "biochemical", "details": "read-out: % Residual Activity (mean)"}, "CDK6/cyclin D3": {"biological_target": "CDK6/cyclin D3 (Homo sapiens (Human), UniProt Q00534)", "assay": "Kinome-wide profiling", "type": "biochemical", "details": "read-out: % Residual Activity (mean)"}, "NEK9": {"biological_target": "NEK9 (Homo sapiens (Human), UniProt Q8TD19)", "assay": "Kinome-wide profiling", "type": "biochemical", "details": "read-out: % Residual Activity (mean)"}, "DAPK2": {"biological_target": "DAPK2 (Homo sapiens (Human), UniProt Q9UIK4)", "sequence (Q9UIK4 whole entry)": "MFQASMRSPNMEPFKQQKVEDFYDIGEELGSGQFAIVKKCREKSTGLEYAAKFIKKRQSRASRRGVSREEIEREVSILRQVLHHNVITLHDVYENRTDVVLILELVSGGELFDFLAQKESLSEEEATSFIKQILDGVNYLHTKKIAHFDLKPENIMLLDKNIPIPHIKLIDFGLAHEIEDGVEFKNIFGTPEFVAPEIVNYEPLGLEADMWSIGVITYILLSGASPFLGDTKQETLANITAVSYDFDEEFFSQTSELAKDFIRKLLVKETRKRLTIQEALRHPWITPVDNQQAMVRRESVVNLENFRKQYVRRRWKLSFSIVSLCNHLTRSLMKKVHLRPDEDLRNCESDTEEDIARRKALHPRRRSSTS", "assay": "Kinome-wide profiling", "type": "biochemical", "details": "read-out: % Residual Activity (mean)"}, "DMPK2": {"biological_target": "DMPK2 (Homo sapiens (Human), UniProt Q6DT37)", "assay": "Kinome-wide profiling", "type": "biochemical", "details": "read-out: % Residual Activity (mean)"}, "CSK": {"biological_target": "CSK (Homo sapiens (Human), UniProt P41240)", "assay": "Kinome-wide profiling", "type": "biochemical", "details": "read-out: % Residual Activity (mean)"}}}
{"smiles": "CCn1cnc2c(NCc3ccc(-c4ccccn4)nc3)nc(-c3ccc(N)nc3)nc21", "note": "[Example 53, N-([2,2′-bipyridin]-5-ylmethyl)-2-(6-aminopyridin-3-yl)-9-ethyl-9H-purin-6-amine]", "values": [{"measurement": "remaining activity at 10 µM", "setting": "TLK1", "result": 67.8, "unit": "%"}, {"measurement": "remaining activity at 10 µM", "setting": "MLCK/MYLK", "result": 63.4, "unit": "%"}, {"measurement": "remaining activity at 10 µM", "setting": "PIM1", "result": 97.8, "unit": "%"}, {"measurement": "Liver microsomal metabolic stability (% remaining amount) Dog", "setting": "[1]; dog liver microsomes", "result": 46.2, "unit": "%"}, {"measurement": "Liver microsomal metabolic stability (% remaining amount) Human", "setting": "[1]; human liver microsomes", "result": 64.8, "unit": "%"}, {"measurement": "Liver microsomal metabolic stability (% remaining amount) Mouse", "setting": "[1]; mouse liver microsomes", "result": 49.9, "unit": "%"}, {"measurement": "remaining activity at 10 µM", "setting": "PKG2/PRKG2", "result": 99.5, "unit": "%"}, {"measurement": "remaining activity at 10 µM", "setting": "LATS2", "result": 77.4, "unit": "%"}, {"measurement": "remaining activity at 10 µM", "setting": "CDK9/cyclin T2", "result": 1.95, "unit": "%"}, {"measurement": "remaining activity at 10 µM", "setting": "MUSK", "result": 10.2, "unit": "%"}, {"measurement": "remaining activity at 10 µM", "setting": "CK1a1", "result": 26.5, "unit": "%"}, {"measurement": "remaining activity at 10 µM", "setting": "CDK1/cyclin B", "result": 2.06, "unit": "%"}, {"measurement": "GI50", "setting": "SK-Br3 cells", "result": 38, "unit": "nM"}, {"measurement": "GI50", "setting": "HCC1954 cells", "result": 36, "unit": "nM"}, {"measurement": "remaining activity at 10 µM", "setting": "EPHA5", "result": 5.86, "unit": "%"}, {"measurement": "remaining activity at 10 µM", "setting": "BRAF", "result": 60.8, "unit": "%"}, {"measurement": "remaining activity at 10 µM", "setting": "EPHA2", "result": 42.3, "unit": "%"}, {"measurement": "remaining activity at 10 µM", "setting": "RSK4", "result": 54.2, "unit": "%"}, {"measurement": "remaining activity at 10 µM", "setting": "STK25/YSK1", "result": 23.1, "unit": "%"}, {"measurement": "remaining activity at 10 µM", "setting": "DYRK2", "result": 22.3, "unit": "%"}, {"measurement": "remaining activity at 10 µM", "setting": "JNK3", "result": 48.7, "unit": "%"}, {"measurement": "remaining activity at 10 µM", "setting": "STK33", "result": 33.5, "unit": "%"}, {"measurement": "remaining activity at 10 µM", "setting": "MAPKAPK5/PRAK", "result": 103, "unit": "%"}, {"measurement": "remaining activity at 10 µM", "setting": "GRK5", "result": 91.5, "unit": "%"}, {"measurement": "remaining activity at 10 µM", "setting": "MEK2", "result": 176, "unit": "%"}, {"measurement": "remaining activity at 10 µM", "setting": "LKB1", "result": 0, "unit": "%"}, {"measurement": "remaining activity at 10 µM", "setting": "FER", "result": 52.3, "unit": "%"}, {"measurement": "remaining activity at 10 µM", "setting": "TNIK", "result": 69, "unit": "%"}, {"measurement": "remaining activity at 10 µM", "setting": "CAMK1d", "result": 58, "unit": "%"}, {"measurement": "remaining activity at 10 µM", "setting": "MST1/STK4", "result": 62.2, "unit": "%"}, {"measurement": "remaining activity at 10 µM", "setting": "EPHA1", "result": 13.2, "unit": "%"}, {"measurement": "remaining activity at 10 µM", "setting": "CDK6/cyclin D3", "result": 12.9, "unit": "%"}, {"measurement": "remaining activity at 10 µM", "setting": "NEK9", "result": 90, "unit": "%"}, {"measurement": "remaining activity at 10 µM", "setting": "DAPK2", "result": 85.7, "unit": "%"}, {"measurement": "remaining activity at 10 µM", "setting": "DMPK2", "result": 92.4, "unit": "%"}, {"measurement": "remaining activity at 10 µM", "setting": "CSK", "result": 54.8, "unit": "%"}]}
